Experimental findings from ChEMBL document CHEMBL3414509, “A FRET-based assay for screening SIRT6 modulators” (Eur J Med Chem, 2015) are described below.

The target of assay [1] is NAD-dependent protein deacylase sirtuin-6 (Homo sapiens) (UniProt Q8N6T7). As to the kind of experiment: Activity of SIRT6 (unknown origin) assessed as enzyme-mediated compound hydrolysis at 10 uM incubated for 60 mins in presence of NAD followed by 1 hr incubation with trypsin.
The target is the same in assay [2]. Briefly: Inhibition of SIRT6 (unknown origin) at 300 uM using (DABCYL)ISGASE(MyK)DIVHSE(EDANS)G substrate in presence of NAD followed by 1 hr incubation with trypsin by FRET assay.
For assay [3], the target named is T1, NAD-dependent protein deacetylase sirtuin-1 (Homo sapiens) (UniProt Q96EB6).
T1 sequence (whole entry): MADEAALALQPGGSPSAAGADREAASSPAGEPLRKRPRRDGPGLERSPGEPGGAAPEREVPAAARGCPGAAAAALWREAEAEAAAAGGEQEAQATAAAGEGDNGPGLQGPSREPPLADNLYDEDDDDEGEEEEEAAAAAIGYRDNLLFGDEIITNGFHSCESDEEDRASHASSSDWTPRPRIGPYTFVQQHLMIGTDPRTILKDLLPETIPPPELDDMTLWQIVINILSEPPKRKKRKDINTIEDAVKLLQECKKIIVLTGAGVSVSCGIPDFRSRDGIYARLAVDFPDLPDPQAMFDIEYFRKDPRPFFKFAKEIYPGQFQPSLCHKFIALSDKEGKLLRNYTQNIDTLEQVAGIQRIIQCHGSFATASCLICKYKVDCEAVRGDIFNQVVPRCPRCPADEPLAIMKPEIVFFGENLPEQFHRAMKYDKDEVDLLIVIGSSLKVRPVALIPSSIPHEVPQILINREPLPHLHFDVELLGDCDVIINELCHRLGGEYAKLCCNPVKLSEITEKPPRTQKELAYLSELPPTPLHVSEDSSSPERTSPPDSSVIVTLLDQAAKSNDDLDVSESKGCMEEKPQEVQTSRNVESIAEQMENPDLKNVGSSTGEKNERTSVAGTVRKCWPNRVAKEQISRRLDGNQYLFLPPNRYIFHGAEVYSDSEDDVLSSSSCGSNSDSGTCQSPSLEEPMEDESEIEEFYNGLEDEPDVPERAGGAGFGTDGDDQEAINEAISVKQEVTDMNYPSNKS
As to the kind of experiment: Inhibition of SIRT1 (unknown origin) at 300 uM using (DABCYL)ISGASE(AcK)DIVHSE(EDANS)G substrate in presence of NAD followed by 1 hr incubation with trypsin by FRET assay.

Assay [4] concerns the target Trypsin (Homo sapiens) (UniProt P07477+P07478+P35030). Briefly: Activity of trypsin (unknown origin) assessed as enzyme-mediated compound hydrolysis by measuring increase in fluorescence at 10 uM incubated for 1 hr at 37 degC relative to control. The class given is protein assay.

Active and inactive are the calls of the source. The calls are words filed in the database; no cut-off is given here. Peptide text beside a SMILES is read from it. * marks the point of attachment. X1 = CN(C)c1ccc(/N=N/c2ccc(C(=O)*)cc2)cc1; EDANS = O=S(=O)(O)c1cccc2c(NCCN*)cccc12; Myristoyl = CCCCCCCCCCCCCC(=O)*

NAD-dependent protein deacylase sirtuin-6 (Homo sapiens), sequence (Q8N6T7 whole entry): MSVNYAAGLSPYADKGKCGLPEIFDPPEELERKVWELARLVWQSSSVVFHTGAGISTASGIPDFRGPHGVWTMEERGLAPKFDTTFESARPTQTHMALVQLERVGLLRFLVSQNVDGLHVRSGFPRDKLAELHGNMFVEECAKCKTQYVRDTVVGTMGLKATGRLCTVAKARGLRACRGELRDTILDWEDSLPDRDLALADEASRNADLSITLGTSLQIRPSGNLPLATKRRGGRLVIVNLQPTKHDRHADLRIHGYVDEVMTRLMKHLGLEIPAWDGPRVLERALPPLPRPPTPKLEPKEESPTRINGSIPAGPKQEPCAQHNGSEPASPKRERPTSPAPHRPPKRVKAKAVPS

As for `CCCCCCCCCCCCCC(=O)NCCCC[C@H](NC(=O)[C@H](CCC(=O)O)NC(=O)[C@H](CO)NC(=O)[C@H](C)NC(=O)CNC(=O)[C@H](CO)NC(=O)[C@@H](NC(=O)c1ccc(/N=N/c2ccc(N(C)C)cc2)cc1)[C@@H](C)CC)C(=O)N[C@@H](CC(=O)O)C(=O)N[C@H](C(=O)N[C@H](C(=O)N[C@@H](Cc1cnc[nH]1)C(=O)N[C@@H](CO)C(=O)N[C@@H](CCC(=O)NCCNc1cccc2c(S(=O)(=O)O)cccc12)C(=O)NCC(=O)O)C(C)C)[C@@H](C)CC` (X1-ISGASEK(Myristoyl)DIVHSE(EDANS)G-OH), the fold change (FC) in assay [1] was determined as 10.

The inhibition is how much of the control response was suppressed. For the molecule `NC(=O)c1cccnc1`, the inhibition in assay [2] was over 50%. The inhibition entry in assay [3] was “Active”.

On to `O=C1CCc2c(ccc3ccccc23)O1`, for which the inhibition in assay [2] is under 50%.

For the molecule `CC[C@H](C)[C@H](NC(=O)c1ccc(/N=N/c2ccc(N(C)C)cc2)cc1)C(=O)N[C@@H](CO)C(=O)NCC(=O)N[C@@H](C)C(=O)N[C@@H](CO)C(=O)N[C@@H](CCC(=O)O)C(=O)N[C@@H](CCCCN)C(=O)N[C@@H](CC(=O)O)C(=O)N[C@H](C(=O)N[C@H](C(=O)N[C@@H](Cc1cnc[nH]1)C(=O)N[C@@H](CO)C(=O)N[C@@H](CCC(=O)NCCNc1cccc2c(S(=O)(=O)O)cccc12)C(=O)NCC(=O)O)C(C)C)[C@@H](C)CC` (HELM PEPTIDE1{[CN(C)c1ccc(/N=N/c2ccc(C(=O)[*:2])cc2)cc1].I.S.G.A.S.E.K.D.I.V.H.S.E.G}|CHEM1{[O=S(=O)(O)c1cccc2c(NCCN[*:1])cccc12]}$PEPTIDE1,CHEM1,14:R3-1:R1$$$V2.0), the fold change (FC) in assay [4] came to 15.

Consider `N#C/C(=C\c1ccc(-c2cc(Cl)ccc2Cl)o1)C(=O)Nc1cccc2ncccc12`, for which the inhibition in assay [2] is under 50%.

In the case of `CC(NC(=O)c1ccccc1/N=C/c1c(O)ccc2ccccc12)c1ccccc1` (configuration not stated), the inhibition in assay [2] was under 50%.
